Data on 1 compound can be found in patent US20140205537A1, “LRRK2 INHIBITORS” (ZENOBIA THERAPEUTICS, INC., priority 2011, published 2014).

In assay [1] the target is ABL1 (Homo sapiens, UniProt P00519). Nature of the assay: Kinase selectivity panel: ABL1. Type of assay: biochemical.
Assay [2] has as its target KIT (Homo sapiens, UniProt P10721). Nature of the assay: Kinase selectivity panel: KIT. The format is biochemical.
In assay [3] the target is JNK1 (Homo sapiens, UniProt P45983). Nature of the assay: Kinase selectivity panel: JNK1. The format is biochemical.
Chain of JNK1 (P45983 whole entry, species assumed): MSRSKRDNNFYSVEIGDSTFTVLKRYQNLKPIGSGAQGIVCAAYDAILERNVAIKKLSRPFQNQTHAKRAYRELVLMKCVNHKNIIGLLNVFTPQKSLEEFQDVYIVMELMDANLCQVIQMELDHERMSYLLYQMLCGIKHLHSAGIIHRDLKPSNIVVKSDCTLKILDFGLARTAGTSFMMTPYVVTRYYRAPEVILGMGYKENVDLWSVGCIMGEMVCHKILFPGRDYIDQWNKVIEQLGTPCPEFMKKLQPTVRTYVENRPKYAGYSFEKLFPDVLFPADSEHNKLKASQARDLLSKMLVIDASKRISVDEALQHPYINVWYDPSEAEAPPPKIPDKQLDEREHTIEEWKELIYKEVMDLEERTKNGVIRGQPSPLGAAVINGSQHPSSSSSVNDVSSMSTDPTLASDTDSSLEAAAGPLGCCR
Assay [4] deals with EGFR (Homo sapiens, UniProt P00533). Nature of the assay: Kinase selectivity panel: EGFR. The format is biochemical.
Chain of EGFR (P00533 25-1210, species assumed): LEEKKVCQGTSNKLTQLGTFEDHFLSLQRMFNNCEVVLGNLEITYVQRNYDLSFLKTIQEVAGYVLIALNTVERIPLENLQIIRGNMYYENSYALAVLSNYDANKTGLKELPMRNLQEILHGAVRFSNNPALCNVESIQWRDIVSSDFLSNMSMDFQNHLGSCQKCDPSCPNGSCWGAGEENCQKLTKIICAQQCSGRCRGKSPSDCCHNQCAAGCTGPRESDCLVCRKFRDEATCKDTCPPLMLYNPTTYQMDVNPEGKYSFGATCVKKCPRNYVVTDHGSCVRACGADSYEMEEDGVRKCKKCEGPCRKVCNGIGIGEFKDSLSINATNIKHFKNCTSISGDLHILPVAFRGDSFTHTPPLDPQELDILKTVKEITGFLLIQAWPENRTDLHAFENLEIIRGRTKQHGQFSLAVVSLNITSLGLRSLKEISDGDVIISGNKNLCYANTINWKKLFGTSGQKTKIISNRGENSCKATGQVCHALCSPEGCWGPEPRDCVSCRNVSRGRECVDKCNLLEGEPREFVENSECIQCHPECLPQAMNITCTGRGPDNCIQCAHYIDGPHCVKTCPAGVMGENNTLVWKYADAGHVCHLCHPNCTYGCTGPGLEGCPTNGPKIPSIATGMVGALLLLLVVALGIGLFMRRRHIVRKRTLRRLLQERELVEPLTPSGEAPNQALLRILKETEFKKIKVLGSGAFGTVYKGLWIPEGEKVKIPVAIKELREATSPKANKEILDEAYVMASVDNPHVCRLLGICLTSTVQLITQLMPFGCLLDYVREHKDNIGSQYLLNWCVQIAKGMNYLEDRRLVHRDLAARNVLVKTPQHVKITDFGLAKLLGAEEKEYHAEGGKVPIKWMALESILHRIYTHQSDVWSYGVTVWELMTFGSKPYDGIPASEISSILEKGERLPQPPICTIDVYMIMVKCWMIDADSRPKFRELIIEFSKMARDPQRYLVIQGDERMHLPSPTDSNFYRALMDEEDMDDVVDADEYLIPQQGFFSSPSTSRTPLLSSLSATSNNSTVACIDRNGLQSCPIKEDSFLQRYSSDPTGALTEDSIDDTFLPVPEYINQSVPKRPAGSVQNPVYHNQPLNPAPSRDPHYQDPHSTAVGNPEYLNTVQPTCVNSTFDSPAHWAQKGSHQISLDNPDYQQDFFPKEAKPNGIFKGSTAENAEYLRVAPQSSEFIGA
Assay [5] addresses G2019S LRRK2 (Homo sapiens, UniProt Q5S007, G2019S). The assay is described as follows: DiscoveRx KINOMEscan binding constant (Kd). The settings on record: numeric value. Also noted: purchased DiscoveRx (KINOMEscan service); host or cells: E. coli BL21-derived host (T7 phage) or HEK-293. The procedure:
Compounds of formulas (II), (I), (I-A), (I-B), (I-C), (I-D), (I-D-1), (I-D-2), (I-E), (I-F), (I-G), (I-H), (I-I), (I-I-1), (I-I-2), (I-J), (I-K), (I-L), (I-M), (I-N), (I-Z-1), (I-Z-2), (I-Z-2-a), (I-Z-2-b), (I-Z-2-c), (I-Z-2-d), (I-Z-3-a), (I-Z-3-b), (I-Z-3-c), or (I-Z-3-d) were tested using DiscoveRx's KINOMEscan™ technology to measure a binding constant (Kd) to wild type and G2019S LRRK2. Kinase-tagged T7 phage strains were prepared in an E. coli host derived from the BL21 strain. E. coli were grown to log-phase and infected with T7 phage and incubated with shaking at 32° C. until lysis. The lysates were centrifuged and filtered to remove cell debris. The remaining kinases were produced in HEK-293 cells and subsequently tagged with DNA for qPCR detection. Streptavidin-coated magnetic beads were treated with biotinylated small molecule ligands for 30 minutes at room temperature to generate affinity resins for kinase assays. The liganded beads were blocked with excess biotin and washed with blocking buffer (SeaBlock (Pierce), 1% BSA, 0.05% Tween 20, 1 mM DTT) to remove unbound ligand and to reduce non-specific binding. Binding reactions were assembled by combining kinases, liganded affinity beads, and test compounds in 1× binding buffer (20% SeaBlock, 0.17×PBS, 0.05% Tween 20, 6 mM DTT). All reactions were performed in polystyrene 96-well plates in a final volume of 0.135 ml. The assay plates were incubated at room temperature with shaking for 1 hour and the affinity beads were washed with wash buffer (lx PBS, 0.05% Tween 20). The beads were then re-suspended in elution buffer (lx PBS, 0.05% Tween 20, 0.5 μM non-biotinylated affinity ligand) and incubated at room temperature with shaking for 30 minutes. The kinase concentration in the eluates was measured by qPCR. An 11-point 3-fold serial dilution of each test compound was prepared in 100% DMSO at 100× final test concentration and subsequently diluted to 1× in the assay (final DMSO concentration=[…]). Most Kds were determined using a compound top concentration=30,000 nM.

Assay [6] addresses DCK2 (Homo sapiens, UniProt Q8N568). The assay is described as follows: Kinase selectivity panel: DCK2. The format is biochemical.
The target of assay [7] is CDK5/p35 (Homo sapiens, UniProt Q00535). Nature of the assay: Kinase selectivity panel: CDK5/p35. Type of assay: biochemical.
Chain of CDK5/p35 (Q00535 whole entry, species assumed): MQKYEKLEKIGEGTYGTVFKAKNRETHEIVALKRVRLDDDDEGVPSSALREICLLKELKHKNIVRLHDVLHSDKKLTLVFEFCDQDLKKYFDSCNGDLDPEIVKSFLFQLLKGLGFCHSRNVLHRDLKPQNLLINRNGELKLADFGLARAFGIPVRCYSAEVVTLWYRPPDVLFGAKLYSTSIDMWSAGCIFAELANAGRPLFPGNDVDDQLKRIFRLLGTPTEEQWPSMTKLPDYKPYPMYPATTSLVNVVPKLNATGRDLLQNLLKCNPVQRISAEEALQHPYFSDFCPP
Chain of CDK5/p35 (Q15078 whole entry partner, species assumed): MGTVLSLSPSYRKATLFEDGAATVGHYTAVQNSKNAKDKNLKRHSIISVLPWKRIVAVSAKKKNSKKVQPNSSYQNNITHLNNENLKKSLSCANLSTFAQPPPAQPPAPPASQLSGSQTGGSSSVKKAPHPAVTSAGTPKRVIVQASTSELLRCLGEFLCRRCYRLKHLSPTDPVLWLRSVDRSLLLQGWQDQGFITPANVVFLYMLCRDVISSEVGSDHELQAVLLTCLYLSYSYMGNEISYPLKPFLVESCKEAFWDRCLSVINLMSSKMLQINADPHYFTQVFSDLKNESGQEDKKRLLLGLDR
Assay [8] deals with DYRK3 (Homo sapiens, UniProt O43781). The assay is described as follows: Kinase selectivity panel: DYRK3. Type of assay: biochemical.
Chain of DYRK3 (O43781 whole entry, species assumed): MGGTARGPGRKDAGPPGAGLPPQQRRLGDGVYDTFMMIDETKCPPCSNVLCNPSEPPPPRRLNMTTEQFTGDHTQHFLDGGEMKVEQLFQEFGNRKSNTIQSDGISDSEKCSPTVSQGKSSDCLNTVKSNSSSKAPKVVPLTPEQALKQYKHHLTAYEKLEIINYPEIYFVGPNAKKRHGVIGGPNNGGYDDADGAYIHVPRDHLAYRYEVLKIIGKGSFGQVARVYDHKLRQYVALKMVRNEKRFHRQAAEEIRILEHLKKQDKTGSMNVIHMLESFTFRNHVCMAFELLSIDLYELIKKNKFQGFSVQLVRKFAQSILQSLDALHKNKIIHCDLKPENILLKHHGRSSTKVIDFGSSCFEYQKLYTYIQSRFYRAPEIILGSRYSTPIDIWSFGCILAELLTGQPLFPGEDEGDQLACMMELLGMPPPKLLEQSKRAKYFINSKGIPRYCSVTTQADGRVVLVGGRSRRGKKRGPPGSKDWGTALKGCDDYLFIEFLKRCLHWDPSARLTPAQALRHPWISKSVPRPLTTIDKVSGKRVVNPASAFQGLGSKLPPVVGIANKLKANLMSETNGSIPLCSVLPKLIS

SMILES strings stand for the structures. pIC50, pKd: −log10 of the molar value.

Chain of ABL1 (P00519 whole entry, species assumed): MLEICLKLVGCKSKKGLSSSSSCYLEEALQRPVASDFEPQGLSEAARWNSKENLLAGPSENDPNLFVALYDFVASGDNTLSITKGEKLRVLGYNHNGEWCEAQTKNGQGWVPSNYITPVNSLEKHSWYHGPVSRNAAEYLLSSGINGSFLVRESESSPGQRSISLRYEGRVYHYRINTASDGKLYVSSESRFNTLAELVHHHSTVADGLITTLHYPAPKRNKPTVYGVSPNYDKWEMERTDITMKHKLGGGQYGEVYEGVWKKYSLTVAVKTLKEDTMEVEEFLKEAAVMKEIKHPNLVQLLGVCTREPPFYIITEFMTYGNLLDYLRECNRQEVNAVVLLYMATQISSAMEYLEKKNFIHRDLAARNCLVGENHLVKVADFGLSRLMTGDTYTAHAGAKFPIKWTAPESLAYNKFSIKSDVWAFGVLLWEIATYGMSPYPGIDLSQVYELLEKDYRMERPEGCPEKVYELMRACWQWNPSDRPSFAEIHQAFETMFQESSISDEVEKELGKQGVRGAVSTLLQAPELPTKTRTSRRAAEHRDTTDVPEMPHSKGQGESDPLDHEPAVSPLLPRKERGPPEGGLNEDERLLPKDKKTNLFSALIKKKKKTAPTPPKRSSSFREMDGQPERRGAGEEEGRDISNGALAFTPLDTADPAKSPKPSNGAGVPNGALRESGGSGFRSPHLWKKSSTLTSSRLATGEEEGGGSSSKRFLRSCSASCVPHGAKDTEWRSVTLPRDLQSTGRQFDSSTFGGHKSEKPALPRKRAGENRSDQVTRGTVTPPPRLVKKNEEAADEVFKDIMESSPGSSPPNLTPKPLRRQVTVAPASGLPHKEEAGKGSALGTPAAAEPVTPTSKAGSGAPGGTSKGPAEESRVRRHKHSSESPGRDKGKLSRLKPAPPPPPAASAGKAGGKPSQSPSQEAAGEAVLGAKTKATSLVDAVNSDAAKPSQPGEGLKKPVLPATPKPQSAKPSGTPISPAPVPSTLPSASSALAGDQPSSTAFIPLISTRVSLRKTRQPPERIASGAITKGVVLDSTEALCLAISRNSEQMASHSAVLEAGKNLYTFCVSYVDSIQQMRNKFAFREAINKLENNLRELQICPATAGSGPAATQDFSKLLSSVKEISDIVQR
Chain of KIT (P10721 26-976, species assumed): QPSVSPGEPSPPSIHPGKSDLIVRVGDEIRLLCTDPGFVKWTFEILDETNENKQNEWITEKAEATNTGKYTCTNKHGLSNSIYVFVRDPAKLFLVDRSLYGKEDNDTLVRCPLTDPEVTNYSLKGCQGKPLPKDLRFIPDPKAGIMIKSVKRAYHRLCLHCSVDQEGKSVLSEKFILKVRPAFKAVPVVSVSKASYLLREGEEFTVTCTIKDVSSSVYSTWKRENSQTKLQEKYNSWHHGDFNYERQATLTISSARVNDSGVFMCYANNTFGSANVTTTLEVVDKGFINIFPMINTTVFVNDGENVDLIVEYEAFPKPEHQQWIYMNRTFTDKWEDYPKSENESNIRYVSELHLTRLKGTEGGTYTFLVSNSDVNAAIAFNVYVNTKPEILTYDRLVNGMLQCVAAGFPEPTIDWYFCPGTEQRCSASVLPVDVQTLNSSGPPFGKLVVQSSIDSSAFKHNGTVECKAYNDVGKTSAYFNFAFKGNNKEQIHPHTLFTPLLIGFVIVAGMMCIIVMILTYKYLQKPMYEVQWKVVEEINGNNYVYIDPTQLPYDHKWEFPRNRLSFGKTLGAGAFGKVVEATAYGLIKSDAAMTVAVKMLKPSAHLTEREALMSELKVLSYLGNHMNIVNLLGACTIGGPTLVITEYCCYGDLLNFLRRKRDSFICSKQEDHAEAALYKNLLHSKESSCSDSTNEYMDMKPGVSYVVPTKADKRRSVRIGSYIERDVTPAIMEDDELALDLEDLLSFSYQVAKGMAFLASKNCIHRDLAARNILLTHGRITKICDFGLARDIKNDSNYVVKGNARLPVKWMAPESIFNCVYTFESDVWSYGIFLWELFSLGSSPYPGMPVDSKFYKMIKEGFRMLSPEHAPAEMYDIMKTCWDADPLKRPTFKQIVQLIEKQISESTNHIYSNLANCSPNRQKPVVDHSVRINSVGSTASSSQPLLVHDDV

Usually pIC50 stands for −log10 of the IC50, conventionally taken in molar units. The low end stands for a large IC50, the high end for a small IC50. One may read the inhibition as the change of the read-out against control, counted positive when it falls. As usually defined, the pKd is −log10 of the Kd, conventionally taken in molar units. A high value points to a small Kd. Regarding `COc1ccc2c(c1)/C(=C/c1cnc(C3CCOCC3)[nH]1)C(=O)N2` [Compound 18, (3Z)-5-methoxy-3-[(2-tetrahydropyran-4-yl-1H-imidazol-5-yl)methylene]indolin-2-one], the pIC50 in assay [1] and in assay [7] was under 5.00 each time. Also, the inhibition at 0.1 µM in assay [1] (@0.1 uM) was 5%; in assay [2] it was 4%; in assay [3] it was -5%; in assay [4], -3%; in assay [6], 8%; in assay [7] (@0.1 uM), 1%. Also, the inhibition at 0.1 µM in assay [8] came to 2%. Further, in assay [5], the pKd is 7.02.
